This is an account of results in patent publication US9580400B2, “Cannabinergic nitrate esters and related analogs” (Northeastern University, priority 2013, dated 2017).

Experiment [1] deals with T1, human GPR55 receptor (Homo sapiens, UniProt Q9Y2T6).
T1 construct: human GPR55 receptor modified with human vasopressin V2 receptor tail [GPR55(E)]; fused on or other part: C-terminal tail of the human vasopressin V2 receptor (AVPR2), added to strengthen beta-arrestin recruitment; HA tag; Beta-arrestin 2-GFP is co-expressed as the read-out
T1 sequence (Q9Y2T6 1-292 limits assumed): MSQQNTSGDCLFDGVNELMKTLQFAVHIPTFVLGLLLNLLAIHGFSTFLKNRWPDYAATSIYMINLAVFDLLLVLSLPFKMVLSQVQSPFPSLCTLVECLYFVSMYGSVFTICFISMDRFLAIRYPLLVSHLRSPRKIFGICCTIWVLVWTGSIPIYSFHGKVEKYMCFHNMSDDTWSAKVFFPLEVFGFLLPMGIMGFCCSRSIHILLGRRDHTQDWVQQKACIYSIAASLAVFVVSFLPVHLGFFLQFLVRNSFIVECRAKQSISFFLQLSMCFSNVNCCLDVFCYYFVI
Put plainly: β-arrestin2 translocation assay, GPR55, U2OS cells. Format: cell-based. The method, then: Test compounds were screened in U2OS cells permanently expressing β-arrestin 2-GFP and human GPR55 receptor modified with human vasopressin V2 receptor tail [GPR55(E)].
β-arrestin2 translocation: For both agonist and antagonist assays, the U2OS cells permanently transfected with β-arrestin 2-GFP and human GPR55(E) were used to trace β-arrestin translocation upon compound treatment. U2OS cells permanently expressing HA-GPR55E and βarr2-GFP were plated into 96 or 384 glass bottomed well plates in clear MEM. For the antagonist assay, compounds in DMSO (final concentration <1%) were added to cells 15 min prior to LPI (agonist) addition and the plates were placed in a 5% 37 degree CO2 incubator (LPI was used at 6 μM). For agonist evaluation only the compound of interest is placed on the wells. Following 40 minute incubation, the cells are fixed by adding paraformaldehyde to 4%. Image acquisition is performed using the Cellomics Arrayscan VTI High Content (HC) cell based imaging system and a ×40 lens. Image analysis is done by using the Batchmode computer software evaluating wavelet information which reflects the number and intensity of fluorescent aggregation (procedures performed at Duke University and adopted from http://www.ncbi.nlm.nih.gov/books/NBK66153/and J. Biol. Chem. 2009; 284(43):29817-27 herein incorporated by reference in its entirety). FIG. 15 describes the biochemical assay for compound 78 wherein the β-arrestin assessment of GPR55 activation is shown.

Experiment [2] concerns the target T2, rCB1 (Rattus norvegicus, UniProt P20272).
T2 construct: tissue Pel-Freeze Biologicals; host or cells: rat brain membranes
Nature of the experiment: rCB1 competition-equilibrium binding using [3H]CP-55,940, rat brain membranes. To be noted: Ki calculated from IC50, read-out: rCB1 affinity data. The method, then:
Frozen rat brains (CB1 source) are obtained from Pel-Freeze Biologicals (Rogers, A K) and stored at −80° C. until use. Membranes are prepared according to the method described in Brain Res 1981, 226, (1-2), 107-18 and adapted as previously reported in J Med Chem 1994, 37, (23), 3867-70 and Life Sci 1995, 56, (23-24), 1957-62; each herein incorporated by reference in its entirety.
(§1) The compounds are tested for their ability to bind to CB1 and CB2 receptors using rat brain or HEK293 cell membranes expressing hCB2 and mCB2 membrane preparations, respectively, as described in J Med Chem 1999, 42, (4), 769-776, J Med Chem 1994, 37, (23), 3867-70 and Life Sci 1995, 56, (23-24), 1957-62 (each herein incorporated by reference in its entirety) via competition-equilibrium binding using [^3H]CP-55,940. The results are analyzed using nonlinear regression to determine the actual IC50 of the ligand (Prizm by GraphPad Software, Inc.) and the Ki values are calculated from the IC50 as described in Biochemical Pharmacology 1973, 22, (23), 3099-3108; herein incorporated by reference in its entirety.

The target of experiment [3] is T3, hCB2 (Homo sapiens, UniProt P34972).
T3 construct: expressed in transfected cells; host or cells: HEK293
T3 sequence (P34972 whole entry): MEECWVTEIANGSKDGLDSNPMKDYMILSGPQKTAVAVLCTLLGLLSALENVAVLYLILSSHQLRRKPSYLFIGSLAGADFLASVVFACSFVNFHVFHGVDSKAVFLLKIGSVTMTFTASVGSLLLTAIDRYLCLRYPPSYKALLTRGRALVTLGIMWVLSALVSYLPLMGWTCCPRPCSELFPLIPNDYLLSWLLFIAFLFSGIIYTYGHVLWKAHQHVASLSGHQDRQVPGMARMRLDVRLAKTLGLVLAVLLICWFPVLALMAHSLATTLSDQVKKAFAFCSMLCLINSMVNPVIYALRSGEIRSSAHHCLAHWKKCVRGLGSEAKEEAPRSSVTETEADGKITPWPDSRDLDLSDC
Nature of the experiment: hCB2 competition-equilibrium binding using [3H]CP-55,940, HEK293 cell membranes. The following applies: HEK293 cell membranes expressing hCB2; Ki calculated from IC50; read-out: hCB2 affinity data. The method, then:
HEK293 cells expressing hCB1, hCB2 or mCB2 receptor are used for membrane preparations according to the method described in J Neurochem 1999, 72, (5), 2032-8, herein incorporated by reference in its entirety. The resulting pellet is resuspended in 10 mM Tris-chloride, pH 7.4 with 5 mM MgCl2 and 2 mM EDTA (TME), and stored at −80° C. for no longer than two months. Protein content is assayed by using the Bio-Rad DC protein assay according to the manufacturer's protocol.
as §1

Where [4] appears, read: antagonist assay, compound added 15 min prior to LPI (6 μM), U2OS cells with β-arrestin 2-GFP and GPR55(E).

T2 sequence (P20272 whole entry): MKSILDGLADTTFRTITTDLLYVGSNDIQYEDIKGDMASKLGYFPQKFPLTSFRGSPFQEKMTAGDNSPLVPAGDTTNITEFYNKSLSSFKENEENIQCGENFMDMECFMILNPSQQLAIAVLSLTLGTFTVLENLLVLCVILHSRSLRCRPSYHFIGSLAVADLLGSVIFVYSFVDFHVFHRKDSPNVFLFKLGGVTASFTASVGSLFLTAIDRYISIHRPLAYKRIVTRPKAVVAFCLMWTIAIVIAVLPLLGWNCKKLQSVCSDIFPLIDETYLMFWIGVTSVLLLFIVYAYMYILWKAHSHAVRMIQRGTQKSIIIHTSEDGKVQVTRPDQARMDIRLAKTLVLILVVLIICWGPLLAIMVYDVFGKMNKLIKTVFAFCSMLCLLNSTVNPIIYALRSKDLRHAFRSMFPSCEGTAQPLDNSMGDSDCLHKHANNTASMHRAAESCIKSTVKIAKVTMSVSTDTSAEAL

Turning to `C=C(C)[C@@H]1CCC(C)=C[C@H]1c1c(O)cc(O)cc1CCCCC` [abn-cannabidiol, abnormal cannabidiol], in experiment [1] (setting [4]), the “GPR55 EC50” value is “none”.

Regarding `C=C(C)[C@@H]1CCC(C)=C[C@H]1c1c(O)cc(CCCCC)cc1O` [cannabidiol], the “GPR55 EC50” value in experiment [1] (setting [4]) was “none”.

Consider `CC1=CC[C@@H]2[C@@H](C1)c1c(O)cc(C(C)(C)CCCCO[N+](=O)[O-])cc1OC2(C)C` [compound 1, 5-((6aR,1aR)-1-hydroxy-6,6,9-trimethyl-6a,7,10,10a-tetrahydro-6H-benzo[c]chromen-3-yl)-5-methylhexyl nitrate], for which the Ki is 0.1 nM in experiment [2] and 1 nM in experiment [3].

A word on the EC50: it is the concentration giving half of the maximal effect. For the compound `C=C(C)[C@@H]1CCC(C)=C[C@H]1c1c(O)cc(C(C)(C)CCCCO[N+](=O)[O-])cc1O` [compound 78, 5-((1′R,2′R)-2,6-dihydroxy-5′-methyl-2′-(prop-1-en-2-yl)-1′,2′,3′,4′-tetrahydro-[1,1′-biphenyl]-4-yl)-5-methylhexyl nitrate], the Ki is 60 nM in experiment [2] and 35 nM in experiment [3]. The same compound registered an EC50 in experiment [1] (setting [4]) of 2000 to 4000 nM.

Consider `CCCCCc1cc(O)c2c(c1)OC(C)(C)[C@@H]1CCC(C)=C[C@@H]21` [Δ^9-THC, Δ^9-tetrahydrocannabinol], for which, in experiment [1] (setting [4]), the “GPR55 EC50” value is “none”.

For L-α-lysophosphatidylinositol [LPI], in experiment [1] (LPI (agonist) line of the antagonist assay table), it took 6000 nM to reach a half-maximal effect (EC50).
